PMC10498722 (Chemical Science, 2023)

Columns and labels:
[1] = biological target: T1, glutathione peroxidase 4 (GPX4) (Homo sapiens, UniProt P36969); experiment: GPX4 inhibitor screening assay kit; type: biochemical
T1 sequence (P36969 28-197): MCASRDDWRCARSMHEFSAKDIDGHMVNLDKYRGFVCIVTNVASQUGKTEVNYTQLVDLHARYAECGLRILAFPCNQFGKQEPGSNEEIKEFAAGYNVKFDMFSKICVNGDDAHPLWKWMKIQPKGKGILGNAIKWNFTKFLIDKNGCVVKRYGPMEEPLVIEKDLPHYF

[2] = biological target: T1, glutathione peroxidase 4 (GPX4); experiment: GPX4 assay kit; type: biochemical; conditions: read-out: % enhancement at 100 μM

IC50 [1] [µM]	activation at 100 µM [2] [%]	Structure (SMILES)
17.17 ± 0.17		COC(=O)c1ccc([C@H]2c3[nH]c4ccccc4c3C[C@H](C(=O)OC)N2C(=O)CCl)cc1 [RSL3]
	19	O=C(OC[C@H]1O[C@@H](OC(=O)c2cc(O)c(O)c(OC(=O)c3cc(O)c(O)c(O)c3)c2)[C@H](OC(=O)c2cc(O)c(O)c(OC(=O)c3cc(O)c(O)c(O)c3)c2)[C@@H](OC(=O)c2cc(O)c(O)c(OC(=O)c3cc(O)c(O)c(O)c3)c2)[C@@H]1OC(=O)c1cc(O)c(O)c(OC(=O)c2cc(O)c(O)c(O)c2)c1)c1cc(O)c(O)c(OC(=O)c2cc(O)c(O)c(O)c2)c1 [TA, tannic acid]
